Measurements taken from US20160296529A1, “AMINOTRIAZOLOPYRIDINE FOR USE IN THE TREATMENT OF INFLAMMATION, AND PHARMACEUTICAL COMPOSITIONS THEREOF” (priority 2012, published 2016).
“And” between values parts separate entries of the source, which are not always exact repeats. Equal entries are not always repeated. Where two headings read alike, the source gives them in different places.

Assays:
[1] = target: T1, Recombinant human TYK2 catalytic domain (Homo sapiens, UniProt P29597); assay: TYK2 inhibition assay; type: biochemical
T1 construct: amino acids 871-1187; catalog number 08-147; GST; purchased Carna Biosciences 08-147
T1 sequence (P29597 871-1187): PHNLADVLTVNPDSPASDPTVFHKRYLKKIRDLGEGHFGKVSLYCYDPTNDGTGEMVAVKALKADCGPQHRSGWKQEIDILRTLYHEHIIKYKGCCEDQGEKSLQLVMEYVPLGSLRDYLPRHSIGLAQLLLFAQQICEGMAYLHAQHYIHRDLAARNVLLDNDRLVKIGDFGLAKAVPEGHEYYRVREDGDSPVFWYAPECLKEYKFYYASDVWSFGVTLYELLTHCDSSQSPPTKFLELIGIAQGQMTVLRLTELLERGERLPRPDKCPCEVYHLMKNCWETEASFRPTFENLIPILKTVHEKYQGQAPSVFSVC
Description: Recombinant human TYK2 catalytic domain (amino acids 871-1187; catalog number 08-147) was purchased from Carna biosciences. 4 ng of TYK2 was incubated with 12.5 μg polyGT substrate (Sigma catalog number P0275) in kinase reaction buffer (25 mM Hepes pH 7.2, 50 mM NaCl, 0.5 mM EDTA, 1 mM DTT, 5 mM MnCl2, 10 mM MgCl2, 0.1% Brij-35, 0.1 μM non-radioactive ATP, 0.125 μCi ^33P-gamma-ATP (Perkin Elmer, catalog number NEG602K001MC) final concentrations) with or without 5 μL containing test compound or vehicle (DMSO, 1% final concentration), in a total volume of 25 μL, in a polypropylene 96-well plate (Greiner, V-bottom). After 90 min at 30° C., reactions were stopped by adding 25 μL/well of 150 mM phosphoric acid. […] 40 μL/well of Microscint-20 was added, the top of the plates was sealed and readout was performed using the Topcount (Perkin Elmer). Kinase activity was calculated by subtracting counts per min (cpm) obtained in the presence of a positive control inhibitor (10 μM staurosporine) from cpm obtained in the presence of vehicle. The ability of a test compound to inhibit this activity was determined as:
Percentage inhibition−((cpm determined for sample with test compound present−cpm determined for sample with positive control inhibitor) divided by (cpm determined in the presence of vehicle−cpm determined for sample with positive control inhibitor))*100. […]

[2] = target: T2, Recombinant human JAK3 catalytic domain (Homo sapiens, UniProt P52333); assay: JAK3 inhibition assay; type: biochemical
T2 construct: amino acids 795-1124; catalog number 08-046; purchased Carna Biosciences 08-046
T2 sequence (P52333 795-1124): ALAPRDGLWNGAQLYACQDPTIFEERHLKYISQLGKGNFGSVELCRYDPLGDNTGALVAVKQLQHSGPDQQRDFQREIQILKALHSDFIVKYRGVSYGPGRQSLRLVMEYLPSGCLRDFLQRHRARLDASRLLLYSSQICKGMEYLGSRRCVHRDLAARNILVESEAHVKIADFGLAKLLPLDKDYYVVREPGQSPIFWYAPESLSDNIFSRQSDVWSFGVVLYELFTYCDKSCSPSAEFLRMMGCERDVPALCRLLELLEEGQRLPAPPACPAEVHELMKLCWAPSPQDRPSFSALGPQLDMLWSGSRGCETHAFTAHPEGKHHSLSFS
Description: Recombinant human JAK3 catalytic domain (amino acids 795-1124; catalog number 08-046) was purchased from Carna Biosciences. 0.5 ng JAK3 protein was incubated with 2.5 μg polyGT substrate (Sigma catalog number P0275) in kinase reaction buffer (25 mM Tris pH 7.5, 0.5 mM EGTA, 10 mM MgCl2, 2.5 mM DTT, 0.5 mM Na3VO4, 5 mM b-glycerophosphate, 0.01% Triton X-100, 1 μM non-radioactive ATP, 0.25 μCi ^33P-gamma-ATP (Perkin Elmer, catalog number NEG602K001MC) final concentrations) with or without 5 μL containing test compound or vehicle (DMSO, 1% final concentration), in a total volume of 25 μL, in a polypropylene 96-well plate (Greiner, V-bottom). After 45 min at 30° C., reactions were stopped by adding 25 μL/well of 150 mM phosphoric acid. […] 40 μL/well of Microscint-20 was added, the top of the plates was sealed and readout was performed using the Topcount (Perkin Elmer). Kinase activity was calculated by subtracting counts per min (cpm) obtained in the presence of a positive control inhibitor (10 μM staurosporine) from cpm obtained in the presence of vehicle. The ability of a test compound to inhibit this activity was determined as:
Percentage inhibition=((cpm determined for sample with test compound present−cpm determined for sample with positive control inhibitor) divided by (cpm determined in the presence of vehicle−cpm determined for sample with positive control inhibitor))*100. […]

[3] = average, read-out: IC50 (average)
[4] = individual determinations, read-out: IC50

IC50 [1, 3]: > 3 µM | IC50 [2, 3]: > 3.61 µM
SMILES: Nc1nc2cccc(-c3ccc(CN4CCS(=O)(=O)CC4)cc3)n2n1 [Formula I, 5-[4-(1,1-Dioxothiomorpholin-4-ylmethyl)-phenyl]-[1,2,4]triazolo[1,5-a]pyridin-2-ylamine]
IC50 [1, 4]: > 3.33 µM (3×) and 1.97 µM and 2.12 µM and 3.85 µM and 3.82 µM and 2.21 µM | IC50 [2, 4]: 2.5 µM and 3.2 µM and 3.37 µM and > 4 µM (5×) and > 3.33 µM (2×) and 3.94 µM
